US20260373266A1, “PROTEIN DEGRADERS AND USES THEREOF” (KYMERA THERAPEUTICS, INC., priority 2022, published 2026)

Target: T1, DCAF1 WD40 domain (residues 1077-1390) (Homo sapiens, UniProt Q9Y4B6)
T1 construct: DCAF1 WD40 domain (residues 1077-1390)
Test: DCAF1 binding assay by SPR (Biacore 8K+), DCAF1-3 KD
Conditions: 25 °C, read-out: DCAF1-3 SPR (KD)

T1 sequence (Q9Y4B6 1077-1390): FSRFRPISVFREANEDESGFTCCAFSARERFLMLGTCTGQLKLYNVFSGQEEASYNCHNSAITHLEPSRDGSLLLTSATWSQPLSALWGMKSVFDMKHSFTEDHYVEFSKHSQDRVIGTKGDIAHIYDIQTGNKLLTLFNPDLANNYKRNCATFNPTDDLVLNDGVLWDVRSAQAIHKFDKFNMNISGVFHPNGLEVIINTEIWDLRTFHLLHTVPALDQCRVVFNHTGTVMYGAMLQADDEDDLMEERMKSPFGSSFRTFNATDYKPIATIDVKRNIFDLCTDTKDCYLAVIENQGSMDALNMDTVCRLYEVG

Kd	Structure (SMILES)
> 200 µM	C=CC(=O)N1CC[C@H](N(C)c2ccnc(N[C@@H]3CCCN(c4cccc(F)c4)C3)c2)C1 [I-477]
> 200 µM	C=CC(=O)N[C@H]1CCN(c2ccnc(N[C@@H]3CCCN(c4cccc(F)c4)C3)c2)C1 [I-478]
> 200 µM	C=CC(=O)N1CC[C@H]1C(=O)N1CCN(c2ccnc(N[C@@H]3CCCN(c4cccc(F)c4)C3)c2)CC1 [I-479]
> 200 µM	C=CC(=O)N(C)[C@H]1C[C@H](N(C)c2ccnc(N[C@@H]3CCCN(c4cccc(F)c4)C3)c2)C1 [I-480]
> 200 µM	C=CC(=O)N1CCC[C@H](N(C)c2ccnc(N[C@@H]3CCCN(c4cccc(F)c4)C3)c2)C1 [I-481]
> 200 µM	C=CC(=O)N[C@H]1CC[C@H](c2n[nH]cc2C(=O)N[C@@H](CC(N)=O)c2cccc(Cl)c2)CC1 [I-482]
> 200 µM	C=CC(=O)N1CCC[C@H](c2n[nH]cc2C(=O)N[C@@H](CC(N)=O)c2cccc(Cl)c2)C1 [I-483]
> 200 µM	C[C@@H](O)c1cncc(N2CCC[C@@H](Nc3cc(N4CCOCC4)ccn3)C2)c1 [I-484]
> 200 µM	N[C@@H](c1cncc(N2CCC[C@@H](Nc3cc(N4CCOCC4)ccn3)C2)c1)C1CC1 [I-485]
> 200 µM	c1cc(N2CCOCC2)cc(NC2CCCN(c3cnn[nH]3)C2)n1 (centres unmarked) [I-486]
> 200 µM	Cc1sc2c(c1C)C(c1ccc(Cl)cc1)=N[C@@H](CC(=O)NCCOCCOCCOCCOCCOCCn1ncc(C(=O)N[C@@H](CC(N)=O)c3cccc(Cl)c3)c1-c1ccccc1F)c1nnc(C)n1-2 [I-487]
10 to 100 µM	Cc1sc2c(c1C)C(c1ccc(Cl)cc1)=N[C@@H](CC(=O)NCCOCCOCCOCCOCCOCCn1ncc(C(=O)N[C@@H](CC(N)=O)c3cccc(Cl)c3)c1-c1ccccc1F)c1nnc(C)n1-2 [I-488]
100 to 200 µM	Cc1sc2c(c1C)C(c1ccc(Cl)cc1)=N[C@@H](CC(=O)NCCOCCOCCOCCOCCOCCn1cc(C(=O)N[C@@H](CC(N)=O)c3cccc(Cl)c3)c(-c3ccccc3F)n1)c1nnc(C)n1-2 [I-489]
10 to 100 µM	Cc1sc2c(c1C)C(c1ccc(Cl)cc1)=N[C@@H](CC(=O)NCCOCCOCCOCCOCCn1cc(C(=O)N[C@@H](CC(N)=O)c3cccc(Cl)c3)c(-c3ccccc3F)n1)c1nnc(C)n1-2 [I-490]
> 200 µM	Cc1sc2c(c1C)C(c1ccc(Cl)cc1)=N[C@@H](CC(=O)NCCOCCOCCOCCOCCn1ncc(C(=O)N[C@@H](CC(N)=O)c3cccc(Cl)c3)c1-c1ccccc1F)c1nnc(C)n1-2 [I-491]
> 200 µM	Cc1sc2c(c1C)C(c1ccc(Cl)cc1)=N[C@@H](CC(=O)NCCOCCOCCOCCOCCOCCOCCn1ncc(C(=O)N[C@@H](CC(N)=O)c3cccc(Cl)c3)c1-c1ccccc1F)c1nnc(C)n1-2 [I-492]
> 200 µM	Cc1sc2c(c1C)C(c1ccccc1)=N[C@@H](CC(=O)NCCOCCOCCOCCOCCOCCOCCn1cc(C(=O)N[C@@H](CC(N)=O)c3cccc(Cl)c3)c(-c3ccccc3F)n1)c1nnc(C)n1-2 [I-493]
> 200 µM	Fc1cccc(N2CCC[C@@H](n3cnc4nccc(N5CCOCC5)c43)C2)c1 [I-494]
> 200 µM	NC(=O)C[C@H](NC(=O)c1cn(Cc2ccccc2)nc1-c1ccccc1F)c1cccc(Cl)c1 [I-495]
10 to 100 µM	NC(=O)C[C@H](NC(=O)c1cn[nH]c1C1=CCOCC1)c1cccc(Cl)c1 [I-496]
10 to 100 µM	CN(C)c1ccnc(N[C@@H]2CCCN(c3cccc(F)c3)C2)c1 [I-498]
10 to 100 µM	Fc1cccc(N2CCC[C@H](Nc3cc(N4CCOCC4)ccn3)C2)c1 [I-499]
> 200 µM	C[C@@]1(Nc2cc(N3CCOCC3)ccn2)CCCN(c2cccc(F)c2)C1 [I-500]
10 to 100 µM	NC(=O)C[C@H](NC(=O)c1cn[nH]c1C1CCOCC1)c1ccccc1 [I-501]
> 200 µM	O=C1C(Nc2cc(N3CCOCC3)ccn2)CCCN1c1cccc(F)c1 (centres unmarked) [I-502]
< 10 µM	Fc1cccc(N2CCC[C@@H](Nc3cc(N4CCCCC4)ccn3)C2)c1 [I-503]
> 200 µM	COc1ncccc1-c1[nH]ncc1C(=O)N[C@@H](CC(N)=O)c1cccc(Cl)c1 [I-504]

Kd	Structure (SMILES)
< 10 µM	Cc1ccc(F)c(-c2[nH]ncc2C(=O)N[C@@H](CC(N)=O)c2cccc(Cl)c2)c1 [I-505]
< 10 µM	Cc1ccc(-c2[nH]ncc2C(=O)N[C@@H](CC(N)=O)c2cccc(Cl)c2)c(F)c1 [I-506]
> 200 µM	c1cc(N2CCOCC2)cc(N[C@@H]2CCCN(c3ccc(C4CC4)cc3)C2)n1 [I-507]
100 to 200 µM	c1cc(N2CCOCC2)cc(N[C@@H]2CCCN(c3ccc4c(c3)CCC4)C2)n1 [I-508]
10 to 100 µM	Cc1ccc(N2CCC[C@@H](Nc3cc(N4CCOCC4)ccn3)C2)cc1 [I-509]
100 to 200 µM	Cc1cccc(N2CCC[C@@H](Nc3cc(N4CCOCC4)ccn3)C2)c1 [I-510]
< 10 µM	COCCc1ccc(-c2[nH]ncc2C(=O)N[C@@H](CC(N)=O)c2cccc(Cl)c2)c(F)c1 [I-511]
> 200 µM	CO[C@@H]1C[C@@H](Nc2cc(N3CCOCC3)ccn2)CN(c2cccc(F)c2)C1 [I-512]
< 10 µM	NC(=O)C[C@H](NC(=O)c1c[nH]nc1-c1cc(F)ccc1F)c1cccc(Cl)c1 [I-513]
10 to 100 µM	Cc1cccc(-c2[nH]ncc2C(=O)N[C@@H](CC(N)=O)c2cccc(Cl)c2)c1F [I-515]
10 to 100 µM	Cc1c(N2CCOCC2)ccnc1N[C@@H]1CCCN(c2cccc(F)c2)C1 [I-516]
> 200 µM	C=CC(=O)N1C[C@H](c2ccc(Br)cc2)[C@@H]1C(=O)Nc1cccc2cccnc12 [I-517]
> 200 µM	CCC(=O)N1C[C@H](c2ccc(Br)cc2)[C@@H]1C(=O)Nc1cccc2cccnc12 [I-518]
10 to 100 µM	C=CC(=O)NC1CCN(c2ccnc(N[C@@H]3CCCN(c4cccc(F)c4)C3)c2)CC1 [I-519]
> 200 µM	C[n+]1ccc(N2CCOCC2)cc1N[C@@H]1C[C@@H](O)CN(c2cccc(F)c2)C1 [I-520]
10 to 100 µM	NC(=O)Cc1ccc(F)c(-c2[nH]ncc2C(=O)N[C@@H](CC(N)=O)c2cccc(Cl)c2)c1 [I-521]
10 to 100 µM	NC(=O)CCc1ccc(F)c(-c2[nH]ncc2C(=O)N[C@@H](CC(N)=O)c2cccc(Cl)c2)c1 [I-522]
10 to 100 µM	NC(=O)C[C@H](NC(=O)c1c[nH]nc1-c1cc(C(=O)O)ccc1F)c1cccc(Cl)c1 [I-523]
< 10 µM	COCCC(=O)c1[nH]cc(C(=O)N[C@@H](CC(N)=O)c2cccc(Cl)c2)c1-c1ccccc1F [I-524]
10 to 100 µM	CC(C)c1cccc(-c2[nH]ncc2C(=O)N[C@@H](CC(N)=O)c2cccc(Cl)c2)c1 [I-525]
10 to 100 µM	c1cc(C2CC2)cc(N2CCC[C@@H](Nc3cc(N4CCOCC4)ccn3)C2)c1 [I-526]
> 200 µM	Cc1ncc(N2CCOCC2)cc1N[C@@H]1CCCN(c2cccc(F)c2)C1 [I-527]
> 200 µM	Fc1cccc(N2CCC[C@@H](Nc3cncc(N4CCCCC4)c3)C2)c1 [I-528]
10 to 100 µM	NC(=O)C[C@@H](NC(=O)c1cn[nH]c1-c1ncccc1F)c1cccc(Cl)c1 [I-529]
> 200 µM	CS(=O)(=O)CCc1ccc(F)c(-c2[nH]ncc2C(=O)N[C@H](CC(N)=O)c2cccc(Cl)c2)c1 [I-531]
> 200 µM	CS(=O)(=O)Cc1ccc(F)c(-c2[nH]ncc2C(=O)N[C@H](CC(N)=O)c2cccc(Cl)c2)c1 [I-532]
< 10 µM	O=c1[nH]cc(N2CCOCC2)cc1N[C@@H]1CCCN(c2cccc(F)c2)C1 [I-533]

Kd	Structure (SMILES)
> 200 µM	c1cc(N2CCOCC2)cc(N[C@@H]2CCCN(c3cnn[nH]3)C2)n1 [I-534]
100 to 200 µM	C=CC(=O)N1CCC(c2[nH]ncc2C(=O)N[C@H](CC(N)=O)c2cccc(Cl)c2)CC1 [I-535]
> 200 µM	C=CC(=O)Nc1ccc(-c2[nH]ncc2C(=O)N[C@H](CC(N)=O)c2cccc(Cl)c2)cc1 [I-536]
10 to 100 µM	C=CC(=O)NC1CCC(c2[nH]ncc2C(=O)N[C@H](CC(N)=O)c2cccc(Cl)c2)CC1 (some centres unmarked) [I-537]
< 10 µM	Nc1cc(N[C@@H]2CCCN(c3cccc(F)c3)C2)cc(N2CCOCC2)c1 [I-538]
10 to 100 µM	C[S+]([O-])CN(c1cc(N2CCCOC2)ccn1)[C@H]1CCCN(c2cccc(F)c2)C1 (some centres unmarked) [I-539]
> 200 µM	Fc1cccc(N2CCC[C@H]3[C@@H]2CCN3c2cc(N3CCOCC3)ccn2)c1 [I-540]
100 to 200 µM	Fc1cccc(N2C[C@@H](F)C[C@@H](Nc3cc(N4CCOCC4)ccn3)C2)c1 [I-541]
100 to 200 µM	C=CC(=O)N1CCCC(c2[nH]ncc2C(=O)N[C@@H](CC(N)=O)c2cccc(Cl)c2)C1 (some centres unmarked) [I-542]
< 10 µM	NC(=O)C[C@H](NC(=O)c1cn[nH]c1Cc1ccccc1)c1cccc(Cl)c1 [I-543]
100 to 200 µM	COc1c(N[C@@H]2CCCN(c3cccc(F)c3)C2)cncc1N1CCOCC1 [I-544]
> 200 µM	Cc1ncc(N[C@@H]2CCCN(c3cccc(F)c3)C2)cc1N1CCOCC1 [I-545]
< 10 µM	Nc1ncc(N[C@@H]2CCCN(c3cccc(F)c3)C2)cc1N1CCOCC1 [I-546]
> 200 µM	COc1cc(N[C@@H]2CCCN(c3cccc(F)c3)C2)cc(N2CCOCC2)c1 [I-547]
> 200 µM	NC(=O)C[C@H](NC(=O)c1[nH][nH]c(=O)c1-c1ccccc1F)c1cccc(Cl)c1 [I-548]
< 10 µM	Cc1cc(F)c(-c2[nH]ncc2C(=O)N[C@@H](CC(N)=O)c2cccc(Cl)c2)c(F)c1 [I-549]
> 200 µM	COc1ccc(N2CCC[C@@H](Nc3cncc(N4CCOCC4)c3)C2)cc1 [I-551]
10 to 100 µM	C[C@@H]1CCCN(c2ccnc(N[C@@H]3CCCN(c4cccc(F)c4)C3)c2)C1 [I-552]
< 10 µM	Fc1cccc(N2CCC[C@@H](Nc3cc(N4CC5CCC(C5)C4)ccn3)C2)c1 [I-553]
10 to 100 µM	Fc1cccc(N2CCC[C@@H](Nc3cc(N4Cc5ccccc5C4)ccn3)C2)c1 [I-554]
10 to 100 µM	CN(c1ccnc(N[C@@H]2CCCN(c3cccc(F)c3)C2)c1)C1CCCC1 [I-555]
< 10 µM	COCCOCC(=O)c1[nH]cc(C(=O)N[C@@H](CC(N)=O)c2cccc(Cl)c2)c1-c1ccccc1F [I-556]
< 10 µM	COCCOCCc1[nH]cc(C(=O)N[C@@H](CC(N)=O)c2cccc(Cl)c2)c1-c1ccccc1F [I-557]
< 10 µM	COc1ncc(N[C@@H]2CCCN(c3cccc(F)c3)C2)cc1N1CCOCC1 [I-558]
100 to 200 µM	O=C1C[C@H]([C@@H](NC(=O)c2cn[nH]c2-c2ccccc2F)c2cccc(Cl)c2)CN1 [I-559]

Structure (SMILES)	Kd
NC(=O)C[C@H](NC(=O)C1=C(c2c(F)cccc2F)CCNC1)c1cccc(Cl)c1 [I-550]	100 to 200 µM
